Measured values from PubChem BioAssay AID720513 (Broad Institute, 2013).
Inconclusive results are not listed.

System: U2OS PGC1a acetylation AlphaLISA, overnight
Test: PGC1a acetylation increase, cellular AlphaLISA – cell-based, cherry-picked samples, set 6, dose response (AID 720513);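 also: cells made to overexpress flag tagged PGC1a plus GCN5 acetyltransferase by viral infection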

SMILES | AC40 [µM]
C=CCS(=O)(=O)c1nc2ccccc2s1 | 2.99
CCOC(=O)c1ccc(NC(=O)N2CCc3ccccc3C2)cc1 | 0.478
COc1ccccc1CN1C[C@@H]2N[C@H](C1)C2c1ccc(-c2ccccc2OC)cc1 (some centres not stated) | 20.8
C[C@@H]1CN([C@H](C)CO)C(=O)c2c(c3ccccc3n2C)-c2ccccc2CO[C@@H]1CN(C)C(=O)Nc1ccccc1C(F)(F)F | 3.71
O=C(CSc1nc2c(sc3ccccc32)c(=O)n1CCc1ccccc1)NCc1ccco1 | 18.1
COc1cc(-c2cnc3c(NC(C)=O)cc(-c4ccccc4CN(C)C)cn23)cc(OC)c1OC | 8.19
COc1cc(C)c(CN2CCN(S(=O)(=O)c3ccc(Cl)s3)CC2)cc1OC | 0.525
O=S(=O)(c1cccc(F)c1)N1CCN(Cc2cc3c(cc2Br)OCCO3)CC1 | 0.411
Nc1ccc(N2CCCCC2)cc1N1CCCCC1 | 5.98
CCCCN(CCCC)S(=O)(=O)c1ccc2oc(C(=O)N3CCOCC3)c(C)c2c1 | 1.79
CC(Sc1nc2ccccc2s1)C(=O)NC1CCCc2ccccc21 (configuration not stated) | 12.4
CCO[C@H]1OC(C(=O)Nc2ccccc2)=C[C@@H](c2csc3ccccc23)[C@@H]1CCCO | 15.7
COc1ccc(S(=O)(=O)N2CCOCC2)cc1NC(=O)CCNC(=O)c1ccc([N+](=O)[O-])cc1 | < 0.3
CCOCCn1c(CN(Cc2ccccc2)Cc2ccccc2)nc2c1c(=O)n(C)c(=O)n2C | 6.65
COc1ccc(OC)c(C(=O)/C=C/c2ccccc2C(F)(F)F)c1 | 8.62
CC(C)(C)c1ccc(NC(=O)N2CCN(c3ccc([N+](=O)[O-])cn3)CC2)cc1 | < 0.16
CN1C(=O)/C(=C\c2ccc(N3CCCCC3)o2)C(=O)NC1=S | 4.61
CCN(CC)c1ccc(N)cc1S(=O)(=O)Nc1ccccc1OC | 3
C=C[C@H]1C(C(=O)OCC)=CC[C@@H](c2ccccc2)N1S(=O)(=O)c1ccc(C)cc1 | 0.249
COc1ccc(Cn2nnnc2C(C(C)C)N(Cc2ccco2)Cc2cccs2)cc1 (configuration not stated) | 2.6
COc1cc2cc(-c3ccc(O)cc3O)nc(C)c2cc1OC | 19.3
C[C@@H]1CN([C@H](C)CO)C(=O)c2c(c3ccccc3n2C)-c2ccccc2CO[C@@H]1CN(C)C(=O)c1ccccc1 | 5.94
COc1ccc(C(c2nnnn2C2CCCCC2)N2CCC3(CC2)C(=O)NCN3c2ccccc2)cc1 (configuration not stated) | 3.46
CCCc1cc2c(cc1N(C)S(=O)(=O)c1ccccc1)OCO2 | 2.96
CSc1nn(-c2ccc(C(=O)OC(C(=O)NC(N)=O)C(C)C)cc2)c(=S)s1 (configuration not stated) | 4.42
CCN(CC)CC(=O)N1c2ccccc2CCc2ccc(NC(=O)c3cc(OC)c(OC)c(OC)c3)cc21 | 8.84

SMILES | AC40 [µM]
Cc1ccc(NC(=O)CN2CCC(NC(=O)Cc3ccccc3)CC2)c(C)c1 | 0.507
COc1ccc(C(C)(O)c2nc(-c3ccc(S(C)(=O)=O)cc3)cs2)cc1 (configuration not stated) | 7.7
COc1cc(OC)c2c(-c3cccc(-c4cccc(C)c4)c3)cc(=O)oc2c1 | 1.56
CCOCCn1c(CN(Cc2ccccc2)Cc2ccccc2)nc2c1c(=O)[nH]c(=O)n2C | 5.12
CCCCN(CC)CCCNC(=O)c1cc2c(=O)n(CC)c3ccccc3c2s1 | 1.26
Cc1cccc(C(=O)Nc2ccc(C(=O)/C=C/c3cccnc3)cc2)c1 | 2.34
Cc1ccc(OC(=O)N(C)C[C@H]2OCc3ccccc3-c3c(n(C)c4ccccc34)C(=O)N([C@@H](C)CO)C[C@H]2C)cc1 | 4.98
C[C@@H]1CN([C@@H](C)CO)C(=O)Cc2cc(NC(=O)Cc3ccccc3)ccc2O[C@H]1CN(C)C(=O)Nc1ccccc1 | 0.263
CN(C)CC(O)c1ccc(C=Cc2ccc(Cl)cc2)cc1 (configuration not stated) | 3.19
COc1ccc(-c2nc3c(C)cc(Br)cn3c2Cc2ccc(C)cc2)cc1OC | 8.31
C[C@@H]1CN([C@H](C)CO)C(=O)c2c(c3ccccc3n2C)-c2ccccc2CO[C@@H]1CN(C)C(=O)c1ccc(F)cc1 | 6.65
O=[N+]([O-])c1ccc(N2CCN(CC3CCCCC3)CC2)cc1 | 16
O=C(NCc1csc(-c2cccs2)n1)c1cccc(Cl)c1 | 6.13
COc1ccc(C#Cc2cnc3c(c2)C(=O)N([C@H](C)CO)C[C@H](C)[C@H](CN(C)S(=O)(=O)c2cccs2)O3)cc1OC | 18.2
CC(C)CCNc1nc(N2CCCC2)c2c(c1C#N)CCN(C)C2 | 3.92
CO[C@@H]1CN(C)C(=O)c2cc(NC(=O)c3ccc(Oc4ccccc4)cc3)ccc2OC[C@@H](C)NC[C@@H]1C | 15.2
Cc1ccccc1Cn1cc(NC(=O)c2cc(-c3cccs3)on2)cn1 | 1.32
COC(=O)C[C@H]1c2cc(C(F)(F)F)ccc2S(=O)(=O)N1Cc1ccc(OC)cc1 | 5.25
CCn1c(SC/C=C/c2ccccc2)nnc1-c1cccs1 | 11.2
O=C(c1ccccc1)C(O)(Cc1ccccc1)c1ccccc1 (configuration not stated) | 0.901
COC(=O)CSc1nc(-c2ccccc2)cc(-c2ccco2)c1C#N | 6.11
CCOc1ccccc1N(C)C(=O)C1CCN(S(=O)(=O)c2cccc3nonc23)CC1 | 3.29
C[C@H]1CN([C@@H](C)CO)S(=O)(=O)c2ccc(C#CCN(C)C)cc2O[C@@H]1CN(C)Cc1ccc2c(c1)OCO2 | 4.76
O=C(NCc1ccccc1)N1CCC(n2cnc3cc(F)ccc32)CC1 | 1.89
O=C(Nc1cccnc1)c1ccc(Oc2ccccc2)cc1 | 2.19
Fc1ccc(-c2nn3c(C4COc5ccccc5O4)nnc3s2)cc1 (configuration not stated) | 1.01

SMILES | AC40 [µM]
CCOC(=O)CNS(=O)(=O)c1cc(-c2nnc(Nc3ccc4c(c3)OCO4)c3ccccc23)ccc1C | 1.29
CCCCn1c(CN(Cc2ccccc2)Cc2ccccc2)nc2c1c(=O)n(C)c(=O)n2C | 3.88
COc1ccccc1/C=C1\SC(=S)N(CCC(=O)NCCCn2ccnc2)C1=O | 2.88
COc1ccc(OC(=O)N(C)C[C@H]2OCc3ccccc3-c3c(n(C)c4ccccc34)C(=O)N([C@H](C)CO)C[C@H]2C)cc1 | 6.06
CC/C(=C(\c1ccc(O)cc1)c1ccc(OCCN(C)C)cc1)c1ccccc1 | 2.41
CN1CCN(c2ccc(CNC(=O)c3ccc(-c4ccnn4C)c4ccoc34)cc2)CC1 | 9.27
CO[C@@H](C(=O)N(C)C[C@H]1OCc2ccccc2-c2c(n(C)c3ccccc23)C(=O)N([C@H](C)CO)C[C@H]1C)c1ccccc1 | 8.25
CC(=O)c1cc(-c2ccccc2)n(CCC(=O)NC2CCCCC2)c1C | 7.4
CC1(C)CC(=O)C2=C(C1)Nc1ccccc1N1C(=O)c3ccccc3C21 (configuration not stated) | 2.15
CCN(CC)C(=O)CSc1nnc2nnc3cc(Cl)ccc3n12 | 17.9
Cc1c(C(=O)OCC(=O)c2c(N)n(CC(C)C)c(=O)n(C)c2=O)oc2ccccc12 | 8.24
c1ccc(C(c2nnnn2Cc2cccs2)N2CCN(C3CCCC3)CC2)cc1 (configuration not stated) | 0.483
CC(=O)c1cccc(N(C(=O)Cn2nnc3ccccc32)C(C(=O)NCc2ccccc2)c2ccccn2)c1 (configuration not stated) | 10.5
Cc1cccc(Oc2nccc(C(F)(F)F)c2C(=O)Nc2ccc(F)cc2F)c1 | 11.9
CCC(=O)N(CC)c1nc(-c2ccc(OC)cc2)cs1 | 3.53
CC1CCCCN1C(=O)/C(=C\c1ccccc1)c1ccccc1 (configuration not stated) | 8.57
Cc1cc(C(=O)NNS(=O)(=O)c2ccccc2C(F)(F)F)nn1C(C)(C)C | 1.04
O=C(Cc1ccccc1)N1CCN(C(=O)c2cccs2)CC1 | 10
CC(C)(C)c1ccc(C(=O)c2c[nH]c(C(=O)NCc3cccnc3)c2)cc1 | 1.23
C/C=C(/C)C(=O)O[C@@H]1c2cc(OC)c(OC)c(OC)c2-c2c(cc3c(c2OC)OCO3)C[C@H](C)[C@]1(C)O | 1.48
COc1cc(NC(=O)c2cccs2)c(OC)cc1NC(=O)CCC(=O)Nc1ccc2ncccc2c1 | 0.785
CCOC(=O)c1nc(S(C)(=O)=O)ncc1Cl | 1.65
C[C@@H]1CN([C@H](C)CO)C(=O)c2c(c3ccccc3n2C)-c2ccccc2CO[C@@H]1CN(C)C(=O)Nc1ccc2c(c1)OCO2 | 10.7
CC(Oc1ccc(Cl)cc1Cl)c1nc(-c2ccc(NC(=O)c3cccnc3)cc2)no1 (configuration not stated) | 0.581
Cc1cc(S(=O)(=O)c2ccc([N+](=O)[O-])cn2)ccc1Br | 0.421
O=C1NCN(c2ccccc2)C12CCN(C(c1cccc3ccccc13)c1nnnn1C1CCCCC1)CC2 (configuration not stated) | 5.43

SMILES | AC40 [µM]
CCOC(=O)C(C)n1cnc2c(nnn2-c2ccc(C)cc2)c1=O (configuration not stated) | 2.7
Cc1cccc(-c2ccc(C3[C@@H]4CN(C(=O)C5CCCCC5)C[C@H]3N4)cc2)c1 (some centres not stated) | 6.09
O=C(CCn1nnc2ccccc21)Nc1nnc(Cc2ccccc2)s1 | 4.36
CC(C)C(OC(=O)c1cccs1)C(=O)NC1CCCCC1 (configuration not stated) | 2.58
CC(=O)c1ccc(N2CCN(c3ccc(S(=O)(=O)NCCCN(C)C)cc3[N+](=O)[O-])CC2)cc1 | 1.22
COC(=O)c1cc2ccsc2n1CC(=O)Nc1cc(Cl)ccc1OC | 7.88
CCOc1ccc(Nc2oc(-c3ccc(Cl)cc3)nc2C#N)cc1 | 3.09
C=C/C=C/[C@@H]1C(=C)CN2[C@H]1[C@H](Cc1ccccc1)OC(=O)[C@@H]2Cc1ccccc1 | 11.6
O=C(NCc1cccs1)C1Cc2c(-c3ccc(Cl)cc3)ccnc2O1 (configuration not stated) | 8.86
Cc1cccc(OC2(c3ccccc3)OC(=O)c3ccccc32)c1C (configuration not stated) | 3.37
Cn1cc(-c2ccc(C(=O)NCc3cccc(Cl)c3)c3occc23)cn1 | 4.85
O=C1Nc2cc(S(=O)(=O)N3CCCC3)ccc2N2CCCC12 (configuration not stated) | 16.6
COc1ccc([N+](=O)[O-])cc1NCc1ccccc1 | 2.95
O=C(COCc1cc(-c2ccc3c(c2)OCO3)on1)Nc1cccnc1 | 0.458
Cc1c(C(=O)N2CCN(c3ccccn3)CC2)sc2ncnc(N3CCN(c4ccccc4)CC3)c12 | 10.9
COC(=O)c1cc(S(=O)(=O)N2CCN(c3ccc(C(C)=O)cc3)CC2)c[nH]1 | 4.17
O=C(CN1CCC(n2nnc3cc(F)ccc32)CC1)Nc1ccc2c(c1)CCC2 | 2.71
C[C@@H]1CN([C@H](C)CO)C(=O)c2cc(N(C)C)ccc2O[C@@H](C)CCCCO[C@H]1CN(C)C(=O)Nc1ccccc1 | 10.6
Cc1ccc(OCC(=O)NCCCNC(=O)c2cccnc2)cc1C | 2.1
Cc1sc(NC(=O)c2cccs2)nc1-c1ccccc1 | 0.581
COc1ccc2c(c1)CCc1c(C(=O)NCCCn3ccnc3)noc1-2 | 18.9
O=C(NCCC(c1ccccc1)c1ccccc1)c1ccc(Br)o1 | 12.9
CC(=O)n1cc([C@@H]2C=C(C(=O)Nc3ccccc3)O[C@H](OCc3ccc(CO)cc3)C2)c2ccccc21 | 4.65
COc1ccc(NC(=O)CSC2CC(=O)N(c3ccc4c(c3)OCCO4)C2=O)cc1 (configuration not stated) | 16.5
